Here are results for seven compounds from patent publication US20160186066A1, “METHODS AND SYSTEMS FOR PROCESSING CELLULOSIC BIOMASS” (priority 2014, published 2016).

The nature of data set [1]: MIBC re-extraction (step #2) of layer from initial MIBC extraction (Example 4). The data set is classed as physicochemical. On the procedure: One part of the upper organic-rich upper layer from Example 3 was removed prior to distillation, extracted with one part by weight of MIBC solvent, by shaking for 3 minutes in a vial via mechanical shaker, followed by allowing to phase separate overnight at 25° C.
Extraction efficiency as measured by the partition coefficient K increased with increasing carbon number for the light alcohol. Glycols EG and PG were not extracted.

For data set [2] the following is noted: 3 min.
Protocol: (§1) The reaction product mixture was extracted with one part of by weight solvent, with mixing for a minimum of three minutes, followed by phase separation overnight at 25° C.
Data set [3] can be described thus: Comparison of extraction solvents on simulated aqueous reaction product mixture (Examples 5A-5D).
Protocol: as §1
The nature of data set [4]: Extraction of phenols from 1% aqueous solution with toluene or heptane (Examples 5E-5H). Conditions: for amount remaining in / lost to the aqueous phase: Ex 5F, 1% MPP in water extracted with heptane; for amount left in / lost to the aqueous layer: Ex 5G, 1% m-cresol solution extracted with toluene.
Data set [5] can be described thus: Solubility of MPP in deionized water (turbidity). The data set is classed as physicochemical. Conditions: 1 wt % solution, room temperature.

Where two headings read alike, the source gives them in different places.

Regarding `OCCO` [EG, ethylene glycol], in data set [1], the “Extr #2 % extract” value was “not extracted”.

`CC(C)CC(C)O` (stereo not drawn) [MIBC, methylisobutylcarbinol]: the “oil/water partition coefficient of extraction solvent components” value in data set [2] is reported as 48.

As to `CCCc1ccc(O)c(OC)c1` [MPP, 2-methoxy-4-propylphenol], the “partition coefficient for distribution of extraction solvent between organic and aqueous layers” value in data set [3] (Ex 5B, MPP as extraction solvent) is 612. In data set [3] (Ex 5C, MPP/MIBC mixture as extraction solvent), the “oil/water partition coefficient of extraction solvent components” value is reported as 462. The “partition coefficient, weight percent in organic layer extract vs. lower layer aqueous fraction” value in data set [4] (Ex 5E, 1 wt % MPP in water extracted with one part toluene) was found to be 161.7. The “amount remaining in / lost to the aqueous phase” value in data set [4] was determined as 0.08 wt %. Also, in data set [5], the “solubility in deionized water (turbidity)” value is recorded as “only partial solubility”.

On to `CC(O)CO` (stereo not drawn) [PG, 1,2-propylene glycol], for which the “Extr #2 % extract” value in data set [1] is listed as “not extracted”.

Consider `Cc1cccc(O)c1` [cresol, meta-cresol], for which, in data set [4], the “amount left in / lost to the aqueous layer” value turned out to be 0.05 wt %.

In the case of `CCCCCCC` [heptane], the “amount remaining in / lost to the aqueous phase” value in data set [4] stood at 0.07 wt %. Also, in data set [4] (Ex 5H, 1% m-cresol solution extracted with heptane), the “lost to the aqueous layer” value worked out at 0.015%.

Consider `Cc1ccccc1` [toluene], for which the “amount left in / lost to the aqueous layer” value in data set [4] worked out at 0.04 wt %.
